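Values below derive from 48-hour exposures of cells grown in 96-well plates, with endpoints linearly interpolated between the two concentrations bracketing the appropriate inhibition level. At the GI50, growth is halved.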 Active and inactive are the calls of the source. Cut-off read from the data, not from the text of the source: active = GI50 up to about 1.1 µM and inactive = higher.
Assays:
Experiment in all cases: inhibition of tumour cell growth, NCI panel, 48 h
[1] = test system: LOX IMVI
[2] = test system: NCI-H226
[3] = test system: UACC-62
[4] = test system: RXF 393
[5] = test system: SNB-19
[6] = test system: SF-295
[7] = test system: RPMI-8226
[8] = test system: NCI-H23
[9] = test system: 786-0
[10] = test system: HL-60
[11] = test system: HT-29
[12] = test system: Hs-578T
[13] = test system: OVCAR-3
[14] = test system: COLO 205
[15] = test system: M14
[16] = test system: CAKI-1
[17] = test system: UACC-257
[18] = test system: PC-3
[19] = test system: SR
[20] = test system: MCF7

Measured: GI50

Cc1nc(N)sc1C(=O)Nc1nc[nH]n1
inactive: [1] > 100 µM | [2] > 100 µM | [3] > 100 µM | [4] > 100 µM | [5] > 100 µM | [6] > 100 µM | [7] > 100 µM | [8] > 100 µM | [9] > 100 µM | [10] 13.3 µM | [11] > 100 µM | [12] > 100 µM | [13] > 100 µM | [14] > 100 µM | [15] > 100 µM | [16] > 100 µM | [17] > 100 µM | [18] > 100 µM | [19] 14.1 µM | [20] > 100 µM

CCN1c2nc3ccccc3nc2N(CC)c2nc3ccccc3nc21
inactive: [1] > 100 µM | [2] 51.8 µM | [3] 39.2 µM | [4] 55.5 µM | [5] > 100 µM | [6] 39.7 µM | [7] 34.5 µM | [8] 49.1 µM | [9] 46.1 µM | [10] 34.7 µM | [11] 39.5 µM | [12] 71.4 µM | [13] 41.2 µM | [14] 82.2 µM | [15] 61.9 µM | [16] 55.8 µM | [17] > 10 µM | [18] 61.5 µM | [19] 12.8 µM | [20] 96.4 µM

Reference: ChEMBL document CHEMBL1201862, “PubChem BioAssay data set” (2004)
